# Measurements as given in patent US20250059208A1, “KRAS MODULATING COMPOUNDS” (priority 2023, published 2025).
# Where two headings read alike, the source gives them in different places.
# Experiments:
# GDP-loaded KRAS-G12D = GDP-loaded KRAS-G12D (Homo sapiens, UniProt P01116, G12D); test: KRAS (GDP) biochemical TR-FRET probe displacement assay, G12D; format: binding; conditions: 2 hours at room temperature
# Experimental: (§1) • Compounds were tested for binding to GDP-loaded wild-type KRAS (WT), KRAS-G12C, KRAS-G12D, and KRAS-G12V in a 384-well assay format using a TR-FRET probe displacement assay in buffer consisting of 50 mM Hepes (pH 7.4), 150 mM NaCl. 5 mM MgCl2 and 0.005% Tween-20. 0.03 nM KRAS was used in this assay with 0.02 nM Eu-streptavidin and 12 nM Cy-5 labelled probe. Compounds were serially diluted (1:3) in DMSO. The LabCyte ECHO Acoustic dispenser was used to pre-spot the assay plates (384-well Non-Binding Surface plates, Corning, Catalog #3824) with 50 nL of compound. 5 μL of 2× enzyme concentration was added to the pre-spotted plates and incubated for 30 minutes before adding 5 μL of 2× concentration of Eu-streptavidin and Cy-5 labelled probe (10 μL final reaction volume). The plates were incubated at room temperature for 2 hours before measuring TR-FRET ratio (665 nm/615 nm) on the Envision multimode plate reader. The ratios were normalized to a positive (saturating concentration of known inhibitor) and negative (DMSO) control and plotted against the log of compound concentration. […]
# GDP-loaded KRAS-G12C = GDP-loaded KRAS-G12C (Homo sapiens, UniProt P01116, G12C); test: KRAS (GDP) biochemical TR-FRET probe displacement assay, G12C; format: binding; conditions: 2 hours at room temperature
# Experimental: as §1
# [1] = system: cellular pERK in MIA-PaCa-2 (KRAS-G12C) cell-line; test: Cell based pERK assay, MIA-PaCa-2; conditions: Homo sapiens; MIA-PaCa-2 (KRAS-G12C) cells, 2 hours compound incubation, HTRF Phospho-ERK1/2; read-out: MIAPaCa2 pERK EC50
# Experimental: (§2) Compounds were tested in a 384-well assay format for their ability to inhibit cellular pERK in Kuramochi (WT KRAS), MIA-PaCa-2 (KRAS-G12C), ASPC-1 (KRAS G12D), and NCI-H441 (KRAS-G12V) cell-lines. Compounds were serially diluted (1:3) in DMSO. On day −1, 80 μL of cells were plated per well in the 384 well tissue-culture plates (Greiner: Cat #781080) to seed 5000 cells per wells of AsPC-1 or 7500 cells of MIA-PaCa-2, NCI-H441, and Kuramochi cell lines in RPMI (Corning: Cat #10-040-CM) with 10% fetal bovine serum (FBS) (HyClone: Cat #SH30071-03) and IX penicillin-streptomycin-glutamate (PSG) (Corning: Cat #30-009-C1) for […] and Kuramochi cell lines and DMEM (Corning: Cat #15-018-CM) with 10% FBS and 1×PSG for MIA-PaCa-2 cell line. The plates were then incubated overnight at 37° C. and 5% CO2. On day 0, 400 nL of compound/well was added into the cell plates and mixed 5 times by pipetting using a Beckmann Biomek FX. The cell plates were then incubated for 2 hours at 37° C. and 5% CO2. HTRF Advanced Phospho-ERK1/2 (THR202/TYR204) Detection Kits (PerkinElmer: Cat #64AERPEG) were used to prepare the lysis and detection solution according to manufacturer protocol. Following the 2 hour incubation, 70 μL of medium was aspirated from the plates and 10 μL of lysis and detection solution was added to the plates using a Biotek EL406 washer and dispenser. Plates were sealed and stored overnight at room temperature. HTRF ratio (665 nm/615 nm) was read by Envision multimode reader (PerkinElmer) the next day. The TR-FRET ratios were normalized to a positive (saturating concentration of known inhibitor) and negative (DMSO) control and plotted against the log of compound concentration.
# [2] = biological target: GDP-loaded wild-type KRAS (WT) (Homo sapiens, UniProt P01116); test: KRAS (GDP) biochemical TR-FRET probe displacement assay, WT; format: binding; conditions: 2 hours at room temperature
# Experimental: as §1
# [3] = system: cellular pERK in Kuramochi (WT KRAS) cell-line; test: Cell based pERK assay, Kuramochi; conditions: Kuramochi (WT KRAS) cells, 2 hours compound incubation, HTRF Phospho-ERK1/2
# Experimental: as §2
# [4] = system: cellular pERK in NCI-H441 (KRAS-G12V) cell-line; test: Cell based pERK assay, NCI-H441; conditions: Homo sapiens; NCI-H441 (KRAS-G12V) cells, 2 hours compound incubation, HTRF Phospho-ERK1/2
# Experimental: as §2
# GDP-loaded KRAS-G12V = GDP-loaded KRAS-G12V (Homo sapiens, UniProt P01116, G12V); test: KRAS (GDP) biochemical TR-FRET probe displacement assay, G12V; format: binding; conditions: 2 hours at room temperature
# Experimental: as §1
# [5] = system: cellular pERK in ASPC-1 (KRAS G12D) cell-line; test: Cell based pERK assay, ASPC-1; conditions: ASPC-1 (KRAS G12D) cells, 2 hours compound incubation, HTRF Phospho-ERK1/2
# Experimental: as §2
# GDP-loaded wild-type KRAS (WT), sequence (P01116 1-188 isoform P01116-2): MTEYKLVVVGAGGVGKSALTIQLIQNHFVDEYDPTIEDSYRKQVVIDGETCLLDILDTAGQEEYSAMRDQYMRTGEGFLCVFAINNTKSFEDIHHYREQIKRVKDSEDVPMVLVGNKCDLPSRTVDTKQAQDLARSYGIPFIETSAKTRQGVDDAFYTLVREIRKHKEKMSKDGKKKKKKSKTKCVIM
# GDP-loaded KRAS-G12V, sequence (P01116 1-188 isoform P01116-2 G12V): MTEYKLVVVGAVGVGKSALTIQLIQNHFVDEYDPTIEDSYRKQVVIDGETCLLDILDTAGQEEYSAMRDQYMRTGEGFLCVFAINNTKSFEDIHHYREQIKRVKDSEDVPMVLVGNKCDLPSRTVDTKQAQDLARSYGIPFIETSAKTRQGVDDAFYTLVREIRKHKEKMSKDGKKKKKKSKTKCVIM
# GDP-loaded KRAS-G12D, sequence (P01116 1-188 isoform P01116-2 G12D): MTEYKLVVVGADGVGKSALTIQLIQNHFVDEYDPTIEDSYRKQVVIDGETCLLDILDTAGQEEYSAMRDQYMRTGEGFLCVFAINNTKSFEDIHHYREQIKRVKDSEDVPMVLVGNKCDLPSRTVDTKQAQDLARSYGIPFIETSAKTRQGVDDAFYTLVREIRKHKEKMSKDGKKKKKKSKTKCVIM
# GDP-loaded KRAS-G12C, sequence (P01116 1-188 isoform P01116-2 G12C): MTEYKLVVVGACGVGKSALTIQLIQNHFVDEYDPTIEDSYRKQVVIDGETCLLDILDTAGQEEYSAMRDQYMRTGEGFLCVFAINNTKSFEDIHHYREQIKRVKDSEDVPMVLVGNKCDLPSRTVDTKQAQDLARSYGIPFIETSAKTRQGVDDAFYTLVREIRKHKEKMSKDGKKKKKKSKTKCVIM
SMILES,IC50 (GDP-loaded KRAS-G12D) [nM],IC50 (GDP-loaded KRAS-G12C) [nM],EC50 [1] [nM],IC50 [2] [nM],EC50 ([3]; 2 h) [nM],EC50 [4] [nM],IC50 (GDP-loaded KRAS-G12V) [nM],"EC50 ([5]; Homo sapiens, ASPC1, 2 h) [nM]",EC50 [3] [nM],EC50 ([5]; read-out: AsPC1 pERK EC50) [nM]
C#Cc1c(F)ccc2cc(O)cc(-c3c(Cl)cc4c(N5CC6(F)CCC(F)(C5)N6)nc(OC[C@@]56CCCN5C[C@H](F)C6)nc4c3F)c12 [Example 2-6],25.8,2.8,1.75,5.93,5.13,6.11,9.86,27.5,–,–
Nc1cc2ccc(F)cc2c(-c2c(Cl)cc3c(N4CC5(F)CCC(F)(C4)N5)nc(OC[C@@]45CCCN4C[C@H](F)C5)nc3c2F)n1 [Example 7-2],> 100,> 100,> 1000,> 100,524,> 1000,> 100,> 1000,–,–
Nc1nc2c(-c3c(Cl)cc4c(N5CC6(F)CCC(F)(C5)N6)nc(OC[C@@]56CCCN5C[C@H](F)C6)nc4c3F)ccc(F)c2s1 [Example 7-4],> 100,42.5,42.8,14.3,13.5,118,> 82.3,459,–,–
Fc1cc2c(N3CC4(F)CCC(F)(C3)N4)nc(OC[C@@]34CCCN3C[C@H](F)C4)nc2c(F)c1-c1csc2ncnc(Cl)c12 [Example 6-2],> 100,> 100,> 1000,> 100,> 1000,> 1000,> 100,> 1000,–,–
"C#Cc1c(F)ccc2cc(O)cc(-c3ncc4c(N5C[C@]6(F)CC[C@](F)(C5)N6)nc(OC[C@@]56CCCN5C[C@H](F)C6)nc4c3F)c12 [Example 1-1, 4-(4-((1R,5S)-1,5-difluoro-3,8-diazabicyclo[3.2.1]octan-3-yl)-8-fluoro-2-(((2R,7aS)-2-fluorotetrahydro-1H-pyrrolizin-7a(5H)-yl)methoxy)pyrido[4,3-d]pyrimidin-7-yl)-5-ethynyl-6-fluoronaphthalen-2-ol]",0.14,0.1,0.16,0.08,1.19,0.83,0.11,4.11,–,–
C#Cc1c(F)c(F)cc2cc(O)cc(-c3c(F)cc4c(N5CC6(F)CCC(F)(C5)N6)nc(OCC56CCCN5CCC6)nc4c3F)c12 [Example 2-5],0.61,0.15,3.01,0.29,8.69,6.29,0.2,61.7,–,–
"C#Cc1c(F)ccc2cccc(-c3ncc4c(N5C[C@]6(F)CC[C@](F)(C5)N6)nc(OCC56CCCN5CCC6)nc4c3F)c12 [Example 3-1, 4-((1R,5S)-1,5-difluoro-3,8-diazabicyclo[3.2.1]octan-3-yl)-7-(8-ethynyl-7-fluoronaphthalen-1-yl)-8-fluoro-2-((tetrahydro-1H-pyrrolizin-7a(5H)-yl)methoxy)pyrido[4,3-d]pyrimidine]",–,–,38.4,–,8.71,117,–,368,–,–
Cc1cc(N)nc(-c2c(Cl)cc3c(N4CC5(F)CCC(F)(C4)N5)nc(OC[C@@]45CCCN4C[C@H](F)C5)nc3c2F)c1C(F)(F)F [Example 7-1],> 100,> 100,233,> 89.2,47.5,672,> 100,> 1000,–,–
C#Cc1c(F)ccc2cc(N)cc(-c3ncc4c(N5CC6(F)CCC(F)(C5)N6)nc(OCC56CCCN5CCC6)nc4c3F)c12 [Example 5-3],42.5,6.7,15.6,6.62,11.6,278,26.1,760,–,–
"C#Cc1c(F)ccc2cc(O)cc(-c3c(F)cc4c(N5CC6(F)CCC(F)(C5)N6)nc(OC[C@@]56CCCN5C[C@H](F)C6)nc4c3F)c12 (single isomer, unassigned) [Example 9-1]",0.32,0.17,–,0.18,–,–,0.19,–,4.25,6.2
"C#Cc1c(F)ccc2cc(O)cc(-c3ncc4c(N5C[C@]6(F)CC[C@](F)(C5)N6)nc(OCC56CCCN5CCC6)nc4c3F)c12 [Example 2-1, 4-(4-((1R,5S)-1,5-difluoro-3,8-diazabicyclo[3.2.1]octan-3-yl)-8-fluoro-2-((tetrahydro-1H-pyrrolizin-7a(5H)-yl)methoxy)pyrido[4,3-d]pyrimidin-7-yl)-5-ethynyl-6-fluoronaphthalen-2-ol]",–,–,6.9,–,11.5,17.9,–,71.1,–,–
"C#Cc1c(F)ccc2cc(O)cc(-c3c(F)cc4c(N5CC6(F)CCC(F)(C5)N6)nc(OC[C@@]56CCCN5C[C@H](F)C6)nc4c3F)c12 (single isomer, unassigned) [Example 9-2]",97.8,–,–,66.3,–,–,72.6,–,> 1000,> 1000
"CCc1c(F)ccc2cc(O)cc(-c3ncc4c(N5CC6(F)CCC(F)(C5)N6)nc(OC[C@@]56CCCN5C[C@H](F)C6)nc4c3F)c12 [Example 4-1, 4-(4-((1R,5S)-1,5-difluoro-3,8-diazabicyclo[3.2.1]octan-3-yl)-8-fluoro-2-(((2R,7aS)-2-fluorotetrahydro-1H-pyrrolizin-7a(5H)-yl)methoxy)pyridol[4,3-d]pyrimidin-7-yl)-5-ethyl-6-fluoronaphthalen-2-ol]",–,–,2.22,–,1.35,4.7,–,11.9,–,–
Fc1ccc2nc(C(F)(F)F)c(-c3c(F)cc4c(N5CC6(F)CCC(F)(C5)N6)nc(OC[C@@]56CCCN5C[C@H](F)C6)nc4c3F)n2c1 [Example 6-3],> 100,> 100,–,> 100,–,–,> 100,–,–,–
CCc1c(F)ccc2cccc(-c3ncc4c(N5CC6(F)CCC(F)(C5)N6)nc(OC[C@@]56CCCN5C[C@H](F)C6)nc4c3F)c12 [Example 4-2],–,–,301,–,53.3,507,–,1030,–,–
Cc1c(F)c(N)cc(-c2ncc3c(N4CC5(F)CCC(F)(C4)N5)nc(OC[C@@]45CCCN4C[C@H](F)C5)nc3c2F)c1C(F)(F)F [Example 6-4],> 100,20.1,–,17.3,11.3,–,21.6,449,–,–
"N#Cc1c(N)sc2c(F)ccc(-c3c(Cl)cc4c(N5CC6(F)CCC(F)(C5)N6)nc(OC[C@@]56CCCN5C[C@H](F)C6)nc4c3F)c12 (single isomer, unassigned) [Example 8-1]",1.46,1.03,–,0.13,–,–,1,–,2.57,25.3
